# In US11319289B2, “5-hydroxy pyridine-based compound for use as P2X1 and P2X3 receptor antagonist and pharmaceutical composition comprising same” (GWANGJU INSTITUTE OF SCIENCE AND TECHNOLOGY, priority 2017, dated 2022):
# Several values for one entry are separate records, joined by “and”; a condition that tells them apart may be missing. Equal entries are not always repeated.
# Legend:
# Assay type in all cases: cell-based
# [1] = target: T1, mouse P2X1 receptor (mP2X1) (Mus musculus, UniProt P51576); experiment: Two-electrode voltage clamp assay, recombinant mP2X1 receptor in Xenopus oocytes; conditions: 10 μM compound, 2 μM ATP, mean±SEM n≥3 (footnote c); for inhibition at 10 µM: read-out: mP2X1 % inhibitory effect at 10 μM
# T1 construct: expressed in transfected cells; host or cells: Xenopus oocytes (cRNA microinjection)
# T1 sequence (P51576 1-399): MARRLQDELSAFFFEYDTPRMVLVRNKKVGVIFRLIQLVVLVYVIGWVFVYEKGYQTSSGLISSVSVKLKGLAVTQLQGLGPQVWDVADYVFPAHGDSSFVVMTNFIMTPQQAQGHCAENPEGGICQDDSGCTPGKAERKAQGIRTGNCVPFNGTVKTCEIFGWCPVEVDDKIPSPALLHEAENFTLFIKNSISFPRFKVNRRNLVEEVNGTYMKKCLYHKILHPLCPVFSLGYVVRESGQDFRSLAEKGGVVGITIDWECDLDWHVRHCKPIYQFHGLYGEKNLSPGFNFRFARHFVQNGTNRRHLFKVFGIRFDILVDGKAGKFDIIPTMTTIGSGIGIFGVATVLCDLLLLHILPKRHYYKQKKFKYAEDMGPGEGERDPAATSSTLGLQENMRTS
# Experimental: (§1) 1-1. Two-Electrode Voltage Clamp Assay for Recombinant mP2X1 and hP2X3 Receptors
# (§2) Xenopus oocytes were isolated and incubated with 270 U/mg of collagenase at 23 to 24° C. for 1.5 hours. Defolliculated oocytes were kept in Barth's solution at 18° C. After 1 day, the defolliculated oocytes were each microinjected cytosolically with mP2X1 and human P2X3 receptor cRNA ([…], 1 μg/mL), incubated for 24 hours at 18° C. in Barth's solution. The cRNA-injected oocytes were kept for 12 days at 4° C. ATP-activated membrane currents (Vh=−70 mV) were recorded from the cRNA-injected oocytes using the two-electrode voltage clamp technique (Axoclamp 2B amplifier). Voltage recording ([…] tip resistance) and current-recording microelectrodes (5 MΩ tip resistance) were filled with 3.0 M KCl. Oocytes were placed in an electrophysiological chamber continuously superfused with Ringer's solution (5 mL/min, at 18° C.) containing 110 mM NaCl, 2.5 mM KCl, 5 mM HEPES and 1.8 mM BaCl2, with pH adjusted to 7.5. To induce an evoked current, 2 μM ATP was superfused for 60 to 120 seconds and then washed for 20 min. For data analysis, the ATP-evoked current was normalized at pH 7.5. The compounds were introduced to the fixed oocytes 20 minutes prior to ATP exposure in the electrophysiological chamber. IC50 values (the concentration of the compound required to inhibit the ATP response by 50%) were determined by Hill plots designed using the Chemical Formula: log(I/Imax−1), where I is the current evoked by ATP in the presence of an antagonist. Data are presented as mean±SEM (n≥3) from different batches of oocytes.
# (§3) In order to investigate the structure-activity relationship (SAR) of the compounds synthesized in the present invention, the antagonistic activity was evaluated by a two-electrode voltage clamp (TEVC) assay in Xenopus oocytes expressing the recombinant mP2X1 or hP2X3, respectively. The hP2X7R antagonistic activity was assessed using an ethidium ion accumulation assay in human HEK293 cells stably expressing the recombinant human P2X7R.
# [2] = target: T2, human P2X3 receptor (hP2X3) (Homo sapiens, UniProt P56373); experiment: Two-electrode voltage clamp assay, recombinant hP2X3 receptor in Xenopus oocytes; conditions: Xenopus oocytes; for IC50: 2 μM ATP-evoked current, mean±SEM n≥3 (footnote d); for inhibition at 1 µM: 1 μM compound, 2 μM ATP, mean±SEM n≥3 (footnote b), read-out: hP2X3 % inhibitory effect at 1 μM
# T2 construct: expressed in transfected cells; host or cells: Xenopus oocytes (cRNA microinjection)
# T2 sequence (P56373 1-397): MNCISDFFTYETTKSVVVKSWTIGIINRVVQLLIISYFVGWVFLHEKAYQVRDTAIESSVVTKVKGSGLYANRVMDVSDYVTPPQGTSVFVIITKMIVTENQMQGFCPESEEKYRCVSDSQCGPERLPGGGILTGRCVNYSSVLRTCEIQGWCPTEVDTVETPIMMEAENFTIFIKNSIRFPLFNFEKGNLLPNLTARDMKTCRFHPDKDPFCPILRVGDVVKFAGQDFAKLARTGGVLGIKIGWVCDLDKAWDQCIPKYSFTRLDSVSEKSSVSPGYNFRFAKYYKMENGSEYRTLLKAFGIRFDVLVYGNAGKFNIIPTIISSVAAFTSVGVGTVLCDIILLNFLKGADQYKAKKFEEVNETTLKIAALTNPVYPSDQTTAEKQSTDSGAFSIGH
# Experimental: as §1, §2, §3
# [3] = target: T3, human P2X7 receptor (hP2X7) (Homo sapiens, UniProt Q99572); experiment: Ethidium bromide accumulation assay in hP2X7-expressing HEK293 cells; conditions: 10 μM compound with BzATP
# T3 construct: expressed in transfected cells
# T3 sequence (Q99572 1-595): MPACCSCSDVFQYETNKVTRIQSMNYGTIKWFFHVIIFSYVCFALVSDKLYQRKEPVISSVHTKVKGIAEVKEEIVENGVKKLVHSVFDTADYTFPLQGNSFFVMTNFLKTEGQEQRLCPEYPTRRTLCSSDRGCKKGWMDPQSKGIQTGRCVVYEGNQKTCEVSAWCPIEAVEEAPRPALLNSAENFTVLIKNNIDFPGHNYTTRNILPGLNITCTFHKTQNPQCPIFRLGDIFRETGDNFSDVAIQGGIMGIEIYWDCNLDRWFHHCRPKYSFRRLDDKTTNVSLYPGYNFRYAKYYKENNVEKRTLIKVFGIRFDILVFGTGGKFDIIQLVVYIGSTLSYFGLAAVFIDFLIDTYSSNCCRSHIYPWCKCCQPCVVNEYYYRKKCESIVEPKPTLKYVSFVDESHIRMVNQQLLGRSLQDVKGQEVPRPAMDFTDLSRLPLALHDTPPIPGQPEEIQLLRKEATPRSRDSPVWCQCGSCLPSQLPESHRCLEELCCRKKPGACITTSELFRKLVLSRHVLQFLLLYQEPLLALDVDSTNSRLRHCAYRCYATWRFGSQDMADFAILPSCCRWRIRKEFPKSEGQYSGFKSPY
# Experimental: 1-2. Ethidium Bromide Accumulation Assay in hP2X-Expressing HEK293 Cells
# HEK293 cells that are stably transfected with the human P2X7 receptor (P2X7R) were kept under a humidified atmosphere of 5% CO2 at 37° C. in DMEM supplemented with 10% (v/v) FBS, 2 mM L-glutamine and antibiotics (50 U/mL penicillin and 50 μg/ml streptomycin). BzATP-induced pore formation was measured using a fluorescence plate reader by measuring cellular absorption of ethidium in the hP2X7-expressing HEK293 cells. The hP2X7-expressing HEK293 cells were washed once with an appropriate assay buffer, and the buffer was also removed before subsequent analysis. All studies were performed at room temperature and the final assay volume was 100 μL. The cells were resuspended at 2.5×10^6 cells/mL in assay buffers consisting of 10 mM HEPES, 5 mM N-methyl-D-glucamine, 5.6 mM KCl, 10 mM D-glucose and 0.5 mM CaCl2 (pH 7.4) and supplemented with 280 mM sucrose or 140 mM NaCl.
# In order to determine the antagonistic activity of the 5-hydroxyl-pyridine derivatives of the present invention and the reference compound (AZD9056), these compounds were added to the cells at a concentration of 10 μM with BzATP without pre-incubation. The cells were incubated for 2 hours under a humidified atmosphere of 5% CO2 at 37° C., and the absorption of ethidium dye was observed by measuring fluorescence with a Bio-Tek instrument FL600 fluorescent plate reader (excitation wavelength of 530 nm and emission wavelength of 590 nm). The results are expressed as a percentage relative to the maximum cumulative amount of ethidium bromide when stimulated with BzATP alone.
# as §3
Compound,mP2X1 % inhibitory effect at 10 μM [1],IC50 [2],hP2X7 % inhibition of ethidium bromide accumulation [3],inhibition at 1 µM [2] [%],inhibition at 10 µM [1] [%]
"COc1ccc(CCc2nc(Cc3ccccc3)c(O)c(C(=O)O)c2C(=O)O)cc1 [Compound 13h, 6-Benzyl-5-hydroxy-2-(4-methoxyphenethyl)pyridine-3,4-dicarboxylic acid]",Inactive^c,751 ± 83 nM,Inactive,,
"CCCc1nc(Cc2cccc(Oc3ccccc3)c2)c(C)c(C#N)c1O [Compound 38, 3-Hydroxy-5-methyl-6-(3-phenoxybenzyl)-2-propylisonicotinonitrile]",inactive^c,,inactive,< 50,
"CCCc1nc(CCc2ccc(OC)cc2)c(C)c(C(=O)O)c1O [Compound 22c, 3-Hydroxy-6-(4-methoxyphenethyl)-5-methyl-2-propylisonicotinic acid]",,303 nM,Inactive,,22.7
"COc1ccc(CCc2nc(C)c(O)c3c2C(=O)OC3=O)cc1 [Compound 18, 7-Hydroxy-4-(4-methoxyphenethyl)-6-methylfuro[3,4-c]pyridine-1,3-dione]",,,inactive,27.8,25.3
"COc1ccc(CCc2nc(CCSC)c(O)c(C(=O)O)c2C(=O)O)cc1 [Compound 13k, 5-Hydroxy-2-(4-methoxyphenethyl)-6-(2-(methylthio)ethyl)pyridine-3,4-dicarboxylic acid]",Inactive^c,287 ± 87 nM,inactive,,
"COc1ccc(CCc2nc(C)c(O)c(C(=O)O)c2C)cc1 [Compound 22b, 3-Hydroxy-6-(4-methoxyphenethyl)-2,5-dimethylisonicotinic acid]",Inactive^c,384 nM and 385 nM,inactive,,
"CCCc1nc(Cc2cccc(Oc3ccccc3)c2)c(C)c(CN)c1O [Compound 41, 4-(Aminomethyl)-5-methyl-6-(3-phenoxybenzyl)-2-propylpyridin-3-ol]",inactive^c,,inactive,< 50,
"COc1ccc(CCc2nc(C)c(O)c(-c3nnn[nH]3)c2C(=O)O)cc1 [Compound 17, 5-Hydroxy-2-(4-methoxyphenethyl)-6-methyl-4-(1H-tetrazol-5-yl)nicotinic acid]",Inactive^c,,inactive,27.3 ± 1.8,
"COc1ccc(CCc2nc(CC(C)C)c(O)c(C(=O)O)c2C(=O)O)cc1 [Compound 13g, 5-Hydroxy-6-isobutyl-2-(4-methoxyphenethyl)pyridine-3,4-dicarboxylic acid]",,,inactive,32,23.4 ± 0.8
"COc1ccc(CCc2nc(CCc3ccccc3)c(O)c(C(=O)O)c2C(=O)O)cc1 [Compound 13i, 5-Hydroxy-2-(4-methoxyphenethyl)-6-phenethylpyridine-3,4-dicarboxylic acid]",Inactive^c,742 ± 73 nM,inactive,,
"CCCc1nc(CCc2ccc(OC)cc2)c(C)c(C(N)=O)c1O [Compound 23, 5-Hydroxy-2-[2-(4-methoxyphenyl)ethyl]-3-methyl-6-propyl-pyridine-4-carboxamide]",Inactive^c,709 nM,inactive,,
"COc1ccc(CCc2nc(C(=O)O)c(O)c(C(=O)O)c2C(=O)O)cc1 [Compound 13j, 3-Hydroxy-6-(4-methoxyphenethyl)pyridine-2,4,5-tricarboxylic acid]",,319 ± 81 nM,Inactive,,36.7 ± 2.8
"CCc1nc(CCc2ccc(OC)cc2)c(C(=O)O)c(C(=O)O)c1O [Compound 13c, 6-Ethyl-5-hydroxy-2-(4-methoxyphenethyl)pyridine-3,4-dicarboxylic acid]",,550 ± 93 nM,inactive,,48.1 ± 8.8
"COc1ccc(CCc2nc(C)c(O)c3c(=O)[nH][nH]c(=O)c23)cc1 [Compound 19, 8-Hydroxy-5-(4-methoxyphenethyl)-7-methyl-2,3-dihydropyrido[3,4-d]pyridazine-1,4-dione]",Inactive^c,,inactive,16.3,
